{"source": "ChEMBL document CHEMBL1201862", "about": "“PubChem BioAssay data set” (2004)", "assay_in_all_cases": "inhibition of tumour cell growth, NCI panel, 48 h", "key": {"A498": {"test_system": "A498"}, "SR": {"test_system": "SR"}, "HOP-92": {"test_system": "HOP-92"}, "SNB-75": {"test_system": "SNB-75"}, "COLO 205": {"test_system": "COLO 205"}, "A549": {"test_system": "A549"}, "K562": {"test_system": "K562"}, "MDA-N": {"test_system": "MDA-N"}, "DU-145": {"test_system": "DU-145"}, "MOLT-4": {"test_system": "MOLT-4"}, "Hs-578T": {"test_system": "Hs-578T"}, "NCI-H522": {"test_system": "NCI-H522"}, "M14": {"test_system": "M14"}, "HT-29": {"test_system": "HT-29"}, "HOP-62": {"test_system": "HOP-62"}, "HCT-116": {"test_system": "HCT-116"}, "MDA-MB-231": {"test_system": "MDA-MB-231"}, "UACC-62": {"test_system": "UACC-62"}, "EKVX": {"test_system": "EKVX"}, "PC-3": {"test_system": "PC-3"}, "MDA-MB-435": {"test_system": "MDA-MB-435"}, "NCI-H23": {"test_system": "NCI-H23"}, "SN12C": {"test_system": "SN12C"}, "UACC-257": {"test_system": "UACC-257"}, "MCF7": {"test_system": "MCF7"}, "SF-539": {"test_system": "SF-539"}, "SF-268": {"test_system": "SF-268"}, "UO-31": {"test_system": "UO-31"}, "SF-295": {"test_system": "SF-295"}, "T47D": {"test_system": "T47D"}, "OVCAR-8": {"test_system": "OVCAR-8"}, "RPMI-8226": {"test_system": "RPMI-8226"}, "Malme-3M": {"test_system": "Malme-3M"}, "SNB-19": {"test_system": "SNB-19"}, "NCI-H226": {"test_system": "NCI-H226"}, "BT-549": {"test_system": "BT-549"}, "SK-MEL-28": {"test_system": "SK-MEL-28"}, "CCRF-CEM": {"test_system": "CCRF-CEM"}, "OVCAR-3": {"test_system": "OVCAR-3"}, "SK-MEL-2": {"test_system": "SK-MEL-2"}, "SK-OV-3": {"test_system": "SK-OV-3"}, "RXF 393": {"test_system": "RXF 393"}, "NCI-H460": {"test_system": "NCI-H460"}, "HCC 2998": {"test_system": "HCC 2998"}, "TK-10": {"test_system": "TK-10"}, "OVCAR-4": {"test_system": "OVCAR-4"}, "CAKI-1": {"test_system": "CAKI-1"}, "KM12": {"test_system": "KM12"}, "NCI/ADR-RES": {"test_system": "NCI/ADR-RES"}, "ACHN": {"test_system": "ACHN"}, "SW-620": {"test_system": "SW-620"}, "U-251": {"test_system": "U-251"}, "LOX IMVI": {"test_system": "LOX IMVI"}, "HL-60": {"test_system": "HL-60"}, "786-0": {"test_system": "786-0"}, "SK-MEL-5": {"test_system": "SK-MEL-5"}, "OVCAR-5": {"test_system": "OVCAR-5"}, "HCT-15": {"test_system": "HCT-15"}}, "note": "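Dose response: 5 concentrations. Exposure: 48 h. Format: 96-well plates. Endpoint: linear interpolation; highest concentration if not reached. GI50 = concentration required for 50% inhibition of growth.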 Active and inactive are the calls of the source. Cut-off read from the data, not from the text of the source: active = GI50 up to about 1.1 µM and inactive = higher.", "data": [{"smiles": "CN(C)CCNc1ccc2ncnc3c2c1C(=O)c1ccccc1-3", "values": [{"measurement": "GI50", "setting": "A498", "value": "1640 nM (inactive)"}, {"measurement": "GI50", "setting": "SR", "value": "82.4 nM (active)"}, {"measurement": "GI50", "setting": "HOP-92", "value": "1120 nM (active)"}, {"measurement": "GI50", "setting": "SNB-75", "value": "446 nM (active)"}, {"measurement": "GI50", "setting": "COLO 205", "value": "433 nM (active)"}, {"measurement": "GI50", "setting": "A549", "value": "274 nM (active)"}, {"measurement": "GI50", "setting": "K562", "value": "221 nM (active)"}, {"measurement": "GI50", "setting": "MDA-N", "value": "456 nM (active)"}, {"measurement": "GI50", "setting": "DU-145", "value": "476 nM (active)"}, {"measurement": "GI50", "setting": "MOLT-4", "value": "76.9 nM (active)"}, {"measurement": "GI50", "setting": "Hs-578T", "value": "989 nM (active)"}, {"measurement": "GI50", "setting": "NCI-H522", "value": "232 nM (active)"}, {"measurement": "GI50", "setting": "M14", "value": "314 nM (active)"}, {"measurement": "GI50", "setting": "HT-29", "value": "463 nM (active)"}, {"measurement": "GI50", "setting": "HOP-62", "value": "242 nM (active)"}, {"measurement": "GI50", "setting": "HCT-116", "value": "67.6 nM (active)"}, {"measurement": "GI50", "setting": "MDA-MB-231", "value": "337 nM (active)"}, {"measurement": "GI50", "setting": "UACC-62", "value": "757 nM (active)"}, {"measurement": "GI50", "setting": "EKVX", "value": "343 nM (active)"}, {"measurement": "GI50", "setting": "PC-3", "value": "519 nM (active)"}, {"measurement": "GI50", "setting": "MDA-MB-435", "value": "535 nM (active)"}, {"measurement": "GI50", "setting": "NCI-H23", "value": "655 nM (active)"}, {"measurement": "GI50", "setting": "SN12C", "value": "332 nM (active)"}, {"measurement": "GI50", "setting": "UACC-257", "value": "2090 nM (inactive)"}, {"measurement": "GI50", "setting": "MCF7", "value": "406 nM (active)"}, {"measurement": "GI50", "setting": "SF-539", "value": "667 nM (active)"}, {"measurement": "GI50", "setting": "SF-268", "value": "513 nM (active)"}, {"measurement": "GI50", "setting": "UO-31", "value": "468 nM (active)"}, {"measurement": "GI50", "setting": "SF-295", "value": "174 nM (active)"}, {"measurement": "GI50", "setting": "T47D", "value": "619 nM (active)"}, {"measurement": "GI50", "setting": "OVCAR-8", "value": "466 nM (active)"}, {"measurement": "GI50", "setting": "RPMI-8226", "value": "263 nM (active)"}, {"measurement": "GI50", "setting": "Malme-3M", "value": "166 nM (active)"}, {"measurement": "GI50", "setting": "SNB-19", "value": "1020 nM (active)"}, {"measurement": "GI50", "setting": "NCI-H226", "value": "431 nM (active)"}, {"measurement": "GI50", "setting": "BT-549", "value": "5320 nM (inactive)"}, {"measurement": "GI50", "setting": "SK-MEL-28", "value": "2330 nM (inactive)"}, {"measurement": "GI50", "setting": "CCRF-CEM", "value": "143 nM (active)"}, {"measurement": "GI50", "setting": "OVCAR-3", "value": "556 nM (active)"}, {"measurement": "GI50", "setting": "SK-MEL-2", "value": "1760 nM (inactive)"}, {"measurement": "GI50", "setting": "SK-OV-3", "value": "1810 nM (inactive)"}, {"measurement": "GI50", "setting": "RXF 393", "value": "444 nM (active)"}, {"measurement": "GI50", "setting": "NCI-H460", "value": "443 nM (active)"}, {"measurement": "GI50", "setting": "HCC 2998", "value": "348 nM (active)"}, {"measurement": "GI50", "setting": "TK-10", "value": "175 nM (active)"}, {"measurement": "GI50", "setting": "OVCAR-4", "value": "627 nM (active)"}, {"measurement": "GI50", "setting": "CAKI-1", "value": "259 nM (active)"}, {"measurement": "GI50", "setting": "KM12", "value": "393 nM (active)"}, {"measurement": "GI50", "setting": "NCI/ADR-RES", "value": "357 nM (active)"}, {"measurement": "GI50", "setting": "ACHN", "value": "281 nM (active)"}, {"measurement": "GI50", "setting": "SW-620", "value": "129 nM (active)"}, {"measurement": "GI50", "setting": "U-251", "value": "490 nM (active)"}, {"measurement": "GI50", "setting": "LOX IMVI", "value": "240 nM (active)"}, {"measurement": "GI50", "setting": "HL-60", "value": "2580 nM (inactive)"}, {"measurement": "GI50", "setting": "786-0", "value": "215 nM (active)"}, {"measurement": "GI50", "setting": "SK-MEL-5", "value": "759 nM (active)"}, {"measurement": "GI50", "setting": "OVCAR-5", "value": "488 nM (active)"}, {"measurement": "GI50", "setting": "HCT-15", "value": 323, "unit": "nM"}]}]}
